# Columns and labels:
# Format in all cases: physicochemical
# [1] = Solubility study at 37° C. (buffer, water, bio-relevant media, MeOH/DCM); conditions: listed as I-4 Form A
# Protocol: In addition, residual solids were checked by chiral HPLC to confirm whether racemization occurs.
# Accurate 4 mg of I-1 Form A, 5.13 mg of I-3 Form A, 4.63 mg of I-4 Form A was weighed into a 8 mL glass vial, respectively. 2 mL of solubility medium was added. The salt amount used is equivalent to 4 mg anhydrous free form. Obtained suspensions/solutions were stirred at 37° C. at 400 rpm for 2 hours and 24 hours and then centrifuged at 37° C. at 14,000 rpm for 5 min. Supernatants were analyzed by UPLC and PH meter for solubility and pH value, respectively. Residual solids (wet cakes) were characterized by XRPD to determine physical form and then analyzed by HPLC for chiral purity.
# Bulk stability (1 week) = conditions: listed as I-4 Form A; for Bulk (HPLC) chiral purity / Bulk (HPLC) purity / Bulk (XRPD): Solid state
# Protocol: Bulk stability of I-1 Form A and the 2 salt candidates was investigated at 25° C./92% RH in an open container, at 40° C./75% RH in an open container and at 60° C. in a tight container over 1 week. […] All the 3 salts show no obvious racemization based on chiral purity results.
# I-1 Form A and the 2 salts were placed at 25° C./92% RH in an open container, at 40° C./75% RH in an open container and at 60° C. in a closed container for I week. Samples after I week were characterized by XRPD and HPLC and inspected for color change.
# [2] = Suspension stability at 25° C.; conditions: for Purity / Solubility / pH / Chiral purity (solids) / Solubility (μg/mL) / Chiral purity, liquid / Chiral purity, solid: 25° C.; for Solubility (μg/mL): LOQ: 0.25 μg/mL
# Protocol: Suspension stability: Suspension stability of I-1 Form A and the 2 salt candidates was investigated in pure water, 0.5% (w/w) Tween 80 aqueous solution and 0.5% (w/w) MC (400 cP)+2% (w/w) Vitamin E TPGS aqueous solution at 25° C. for 2 h and 24 h. Target concentration was 2 mg/mL.
# To confirm whether racemization occurs for the 2 salts in 0.5% (w/w) MC (400 cP)+2% (w/w) Vitamin E TPGS aqueous solution, the suspension stability in this vehicle was repeated at target concentration of 10 mg/mL. […] The hygroscopicity of these salts were further investigated.
# Accurate 10 mg of I-1 Form A, 12.83 mg of I-3 Form A, 11.58 mg of I-4 Form A was weighed into a 8 mL glass vial, respectively. 5 mL of suspension vehicle was added, respectively. The salt amount used is equivalent to 10 mg anhydrous free form. These suspensions were stirred at 25° C. with 400 rpm. These suspensions were taken out at 2 hours and 24 hours, then centrifuged at 14,000 rpm for 5 min. The supernatants were analyzed by HPLC and pH meter. Solids obtained (wet cakes) were characterized by XRPD and HPLC to determine the chiral purity.
# Accurate […] of I-3 Form A, 46.3 mg of I-4 Form A was weighed into a 8 mL glass vial, respectively. 4 mL of solubility medium was added, respectively. The salt amount used is equivalent to 40 mg anhydrous free form. 4 mL of the aqueous vehicle (0.5% (w/w) MC (400 cP) and 2% (w/w) Vitamin E TPGS in water) was added, respectively. These suspensions were stirred at 25° C. with 400 rpm. These suspensions were taken out at 2 hours and 24 hours, then centrifuged at 14,000 rpm for 5 min. The supernatants were analyzed by HPLC for the solubility and chiral purity and analyzed by pH meter. Solids obtained (wet cakes) were characterized by XRPD and HPLC for chiral purity.
# [3] = 25° C./92% RH, open container, 1 week
# [4] = 40° C./75% RH, open container, 1 week
# [5] = 60° C., tight container, 1 week
# [6] = 2 mg/mL, 0.5%(w/w) MC(400 cP) and 2%(w/w) Vitamin E TPGS in water, 2 h, listed as I-4 Form A
# [7] = 2 mg/mL, 0.5%(w/w) MC(400 cP) and 2%(w/w) Vitamin E TPGS in water, 24 h, listed as I-4 Form A
# [8] = 2 mg/mL, 0.5%(w/w) Tween 80 in water, 2 h, listed as I-4 Form A
# [9] = 2 mg/mL, 0.5%(w/w) Tween 80 in water, 24 h, listed as I-4 Form A
# [10] = 2 mg/mL, Pure water, 2 h, listed as I-4 Form A
# [11] = 2 mg/mL, Pure water, 24 h, listed as I-4 Form A
# [12] = 10 mg/mL, 0.5(w/w) MC(400 cP) and 2%(w/w) Vitamin E TPGS in water, 2 h, listed as I-4 Form A
# [13] = 10 mg/mL, 0.5(w/w) MC(400 cP) and 2%(w/w) Vitamin E TPGS in water, 24 h, listed as I-4 Form A
compound,measurement,setting,value
N#Cc1c(-c2cc(NC(=O)c3cc(F)cc(C(F)(F)F)c3)c3c(c2)C(=O)N[C@H]3c2cc(F)ccc2Cl)ccc2ncnn12 [Compound I-4],Chiral purity,"[1]; FaSSIF-V1, pH 6.5, 2 hours",purity: 98.3%)
same,Solubility,"[1]; FaSSIF-V1, pH 6.5, 2 hours",44.1 μg/mL(chiral
same,Chiral purity (solids),"[1]; FaSSIF-V1, pH 6.5, 24 hours",99.3%)
same,Solubility,"[1]; FaSSIF-V1, pH 6.5, 24 hours",0.4 µg/mL
same,pH of supernatant,"[1]; FaSSIF-V1, pH 6.5, 24 hours",6.15
same,Chiral purity,"[1]; FeSSIF-V1, pH 5.0, 2 hours",purity: 97.7%)
same,Solubility,"[1]; FeSSIF-V1, pH 5.0, 2 hours",239.1 μg/mL(chiral
same,Chiral purity (solids),"[1]; FeSSIF-V1, pH 5.0, 24 hours",85.2%)
same,Solubility,"[1]; FeSSIF-V1, pH 5.0, 24 hours",16.2 µg/mL
same,pH of supernatant,"[1]; FeSSIF-V1, pH 5.0, 24 hours",4.84
same,Solubility,"[1]; MeOH/DCM (1:2, v/v), 2 hours",>111000 µg/mL
same,Solubility,"[1]; MeOH/DCM (1:2, v/v), 24 hours",>111000 µg/mL
same,Solubility,"[1]; SGF, pH 2.0, 2 hours",3.2 µg/mL
same,Chiral purity (solids),"[1]; SGF, pH 2.0, 24 hours",99.2%)
same,Solubility,"[1]; SGF, pH 2.0, 24 hours",2.6 µg/mL
same,pH of supernatant,"[1]; SGF, pH 2.0, 24 hours",1.89
same,Chiral purity (solids),"[1]; Water, 24 hours",99.2%)
same,pH of supernatant,"[1]; Water, 24 hours",2.52
same,"solubility in MeOH/DCM (1:2, v/v)",[1],> 111 mg/mL
same,Chiral purity (solids),"[1]; pH 2, HCl, 24 hours",99.3%)
same,pH of supernatant,"[1]; pH 2, HCl, 24 hours",1.89
same,bulk stability (chemical and physical),"Bulk stability (1 week); 25° C./92% RH open, 40° C./75% RH open, 60° C. tight container, 1 week",chemically stable but physically unstable at 25° C./92% RH and 40° C./75% RH
same,Bulk (HPLC) chiral purity,Bulk stability (1 week); [3],98.3%
same,Bulk (HPLC) purity,Bulk stability (1 week); [3],99.4%/
same,Bulk (XRPD),Bulk stability (1 week); [3],Form changed
same,Bulk (HPLC) chiral purity,Bulk stability (1 week); [4],99.1%
same,Bulk (HPLC) purity,Bulk stability (1 week); [4],99.0%/
same,Bulk (XRPD),Bulk stability (1 week); [4],Form changed
same,Bulk (HPLC) chiral purity,Bulk stability (1 week); [5],99.2%
same,Bulk (HPLC) purity,Bulk stability (1 week); [5],99.5%/
same,Chiral purity (initial),Bulk stability (1 week); before storage,99.5%
same,Initial purity by HPLC,Bulk stability (1 week); before storage,99.6%
same,physical form of residual solids after the test (XRPD),"[2]; 0.5% MC (400 cP)+2% Vitamin E TPGS, target 10 mg/mL",converted to amorphous form
same,Purity,[2]; [6],99.2%
same,Solubility,[2]; [6],1210.7 µg/mL
same,pH,[2]; [6],2.72
same,Purity,[2]; [7],99.6%
same,Solubility,[2]; [7],2018.8 µg/mL
same,pH,[2]; [7],2.61
same,Chiral purity (solids),[2]; [8],99.7%
same,Purity,[2]; [8],99.5%
same,Solubility,[2]; [8],342.6 µg/mL
same,pH,[2]; [8],2.78
same,Chiral purity (solids),[2]; [9],95.8%
same,Purity,[2]; [9],99.6%
same,pH,[2]; [9],2.63
same,Solubility (μg/mL),"[2]; 2 mg/mL, Pure water, 2 h",<LOQ
same,Chiral purity (solids),[2]; [10],99.7%
same,Purity,[2]; [10],99.5%
same,pH,[2]; [10],2.81
same,Solubility (μg/mL),"[2]; 2 mg/mL, Pure water, 24 h",<LOQ
same,Chiral purity (solids),[2]; [11],99.7%
same,Purity,[2]; [11],99.4%
same,pH,[2]; [11],2.61
same,Purity,"[2]; 10 mg/mL, 0.5(w/w) MC(400 cP) and 2%(w/w) Vitamin E TPGS in water, 2 h",99.7%
same,"Chiral purity, liquid",[2]; [12],100%;
same,"Chiral purity, solid",[2]; [12],99.8%
same,pH,[2]; [12],1.89
same,"Chiral purity, liquid",[2]; [13],99.8%;
same,"Chiral purity, solid",[2]; [13],99.7%
same,Purity,[2]; [13],99.6%
same,pH,[2]; [13],1.86
same,solubility at 2 h,"[2]; 25 °C, aqueous with cosolvent or surfactant or cyclodextrin, thermodynamic from solid, 10 mg/mL, 0.5(w/w) MC(400 cP) and 2%(w/w) Vitamin E TPGS in water, 2 h",3950 µg/mL
same,solubility at 24 h,"[2]; 25 °C, aqueous with cosolvent or surfactant or cyclodextrin, thermodynamic from solid, 10 mg/mL, 0.5(w/w) MC(400 cP) and 2%(w/w) Vitamin E TPGS in water, 24 h",3810 µg/mL
same,Initial chiral purity,"[2]; before suspension, listed as I-4 Form A",Initial chiral purity: 99.5%
same,solubility at 24 h,"[2]; suspension in 0.5% (w/w) Tween 80 in water, 25 °C, aqueous with cosolvent or surfactant or cyclodextrin, thermodynamic from solid, 2 mg/mL, 0.5%(w/w) Tween 80 in water, 24 h",16.3 µg/mL
